Source: patent US20220213138A1, “CYCLIC COMPOUNDS AND METHODS OF MAKING AND USING” (UNIVERSITY OF HONG KONG, priority 2019, published 2022)
Like-named read-outs stand apart in the source and are kept apart here. Positions of bridges follow the written chain, without caps; N, C: chain ends. No end group written: not given here.

Key:
Caco2 cells = assay: Fluorescence confocal imaging analysis of Caco2 cells; format: cell-based; settings: 1 μL 10 mM peptide in 1 mL DMEM with 10% FBS, 2 hours at 37° C.
Description: Caco2 cell line was provided by Prof. Jiang Xia (CUHK). A431 and HT116 cell lines were from Prof. Chiming Che (HKU). Caco2, A431 cells were cultured in DMEM supplemented with 10% FBS. HT116 cells were cultured in RPMI 1640 medium supplemented with 10% FBS. All cells were cultured in a humidified incubator at 37° C. with 5% CO2 supplemented. Cell culture medium and FBS were purchased from Gibco. Hoechst 33342 and DiI were purchased from Beyotime Biotechnology. Flow cytometry tubes were purchased from BD pharmacology.
Caco2 cells were cultured with the confluence of 60% in the 35 mm glass-bottom dish overnight. 1 mL fresh DMEM with 10% FBS was added to the dish. 1 μL 10 mM cyclic peptide (Ac-CPIEDRPMK-CONH2)-Fluorescein (cCK9′-F) (SEQ ID NO:27) in DMSO was added into the medium for 2 hours at 37° C. After two hours' incubation, the supernatant was discarded and the cells were washed with PBS for three times. The cells were replenished with PBS. Hoechst 33342 (final concentration: 2.5 μg/mL) and DiI (final concentration: 5 μM) were added into PBS for 10 min at room temperature. The supernatant was discarded. The cells were washed with PBS for three times and replenished with 3% polyaldehyde for imaging. All images were captured and processed via Leica Application Suit X at ×63 oil objective (Leica).

[1] = crosslinker bond
[2] = test system: poorly differentiated colon carcinoma cells; settings: Kelly, et al., Neoplasia 2003; cited from earlier work
[3] = crosslinker bond, 27-membered ring, OPA, then DMAC, PBS pH 7.4/DMSO, 2 steps
[4] = crosslinker bond, 21-membered ring, OPA, then DMAC, PBS pH 7.4/DMSO, 2 steps
[5] = 21-membered ring, OPA, PBS pH 7.4/DMSO
[6] = 24-membered ring, OPA, PBS pH 7.4/DMSO
[7] = 27-membered ring, OPA, PBS pH 7.4/DMSO
[8] = crosslinker bond, 24-membered ring, OPA, then DMAC, PBS pH 7.4/DMSO, 2 steps

Substance: Cyclo-(Ac-CPIEDRPMK-CONH2)-Fluorescein (Ac-CPIEDRPMK-NH2; linker (positions not given here) via OPA; also: fluorescein conjugate, site not given here) [cCK9′-F]
- imaging overlap with cell membrane dye (DiI) (Caco2 cells): overlapped very well with cell membrane dye (DiI)

Substance: bicyclo-(CSQGTFTSDYSKYLDSRRAQ)
- ring closure, conversion ([1]; 36-membered ring, OPA): 94%

Substance: cyclo-(Ac-KGEAFQC-CONH2)-DMAC
- ring closure, yield after HPLC [3]: 36.6%

Substance: cyclo-(Ac-GAQCAFLK-CONH2)-DMAC
- ring closure, yield after HPLC [4]: 38%

Substance: Ac-GAQCAFLK-CONH2
- ring closure, conversion [1, 5]: 83.3%

Substance: Ac-ACFALPKG-CONH2
- ring closure, conversion [1, 6]: 92.5%

Substance: bicyclo-(CSQGTFTSDYSKYLDSRRAQ)-DMAC
- ring closure, yield after HPLC (crosslinker bond, 36-membered ring, OPA, then DMAC, PBS pH 7.4/DMSO, 2 steps): 65%

Substance: bicyclo-(CNSTKNLTFAMRSSGDYGEV)
- ring closure, conversion ([1]; 21-membered ring, OPA): 90%

Substance: NH2-AAAAACF-CONH2
- ring closure, conversion ([1]; 20-membered ring, OPA): 98%

Substance: Ac-KGEAFQC-CONH2
- ring closure, conversion [1, 7]: 90.9%

Substance: Ac-ENPECILDKHVQRVM-CONH2
- ring closure, conversion ([1]; 21-membered ring, OPA): 98%
- ring closure, conversion [1, 5]: 93.6%

Substance: cyclo-(Ac-KAAAACH-CONH2)-DMAC
- ring closure, yield after HPLC (crosslinker bond, 24-membered ring, OPA, then DMAC, PBS pH 7.4/DMSO, 0.53 mM, 2 steps): 34%

Substance: Ac-CAHNLTHAK-CONH2
- ring closure, conversion ([1]; 33-membered ring, OPA): 98%

Substance: bicyclo-(Dap-A-Hyp-C-t-A-E)-DMAC
- ring closure, yield after HPLC (crosslinker bond, 15-membered ring, 2 steps): 65%

Substance: cyclo-(CNSTKNLTFAMRSSGDYGEV)
- ring closure, conversion [1, 5]: 89.2%
- ring closure, yield after HPLC (amide bond, 60-membered ring, NaNO2, MPAA, TCEP (NCL), 6 M Gn.HCl/0.2 M phosphate buffer, 0.37 mM): 31%

Substance: Ac-CDWLPK-CONH2
- ring closure, conversion [1, 6]: 89.1%

Substance: cyclo-(CSSLDEPGRGGFSSESKV)
- ring closure, conversion ([1]; 15-membered ring, OPA, PBS pH 7.4/DMSO): 86.9%
- ring closure, yield after HPLC (amide bond, 54-membered ring, NaNO2, MPAA, TCEP (NCL), 6 M Gn.HCl/0.2 M phosphate buffer, 0.14 mM): 68.8%

Substance: cyclo-(Ac-KAAAAACH-CONH2)-DMAC
- ring closure, yield after HPLC [3]: 52.2%

Substance: cyclo-(CPIEDRPMC) (disulfide 1-9 (inferred)) [CK-9]
- cell targeting [2]: specifically target poorly differentiated colon carcinoma cells

Substance: Ac-KAAACF-CONH2
- ring closure, conversion ([1]; 21-membered ring, OPA): 98%

Substance: Ac-KAAAAAACF-CONH2
- ring closure, conversion ([1]; 30-membered ring, OPA): 98%

Substance: Ac-KAAAAACF-CONH2
- ring closure, conversion ([1]; 27-membered ring, OPA): 98%

Substance: Phallodin analog (cyclo-(Dap-Ala-Hyp-Cys-(D)thr-Ala-Glu))
- ring closure, conversion ([1]; 15-membered ring): 86.4%

Substance: Ac-NYRWRCKN-CONH2
- ring closure, conversion ([1]; 12-membered ring, OPA, PBS pH 7.4/DMSO): 98%

Substance: cyclo-(Ac-ACFALPKG-CONH2)-DMAC
- ring closure, yield after HPLC [8]: 48%

Substance: Ac-KAAAACH-CONH2
- ring closure, conversion ([1]; 24-membered ring, OPA, PBS pH 7.4/DMSO, 0.53 mM): 92%

Substance: NH2-AAACF-CONH2
- ring closure, conversion ([1]; 14-membered ring, OPA): 98%

Substance: Ac-KAAACH-CONH2
- ring closure, conversion [1, 5]: 98%

Substance: NH2-AAAACF-CONH2
- ring closure, conversion ([1]; 17-membered ring, OPA): 96%

Substance: bicyclo-(CNSTKNLTFAMRSSGDYGEV)-DMAC
- ring closure, yield after HPLC [4]: 69%

Substance: Ac-AKVTMTCSAS-CONH2
- ring closure, conversion [1, 6]: 99%

Substance: cyclo-(Ac-KAAACH-CONH2)-DMAC
- ring closure, yield after HPLC [4]: 47.3%

Substance: cyclo-(Ac—NYRWRCKN-CONH2)-DMAC
- ring closure, yield after HPLC (crosslinker bond, 12-membered ring, OPA, then DMAC, PBS pH 7.4/DMSO, 2 steps): 32%

Substance: cyclo-(CSQGTFTSDYSKYLDSRRAQ)
- ring closure, conversion ([1]; 36-membered ring, OPA, PBS pH 7.4/DMSO): 71.4%
- ring closure, yield after HPLC (amide bond, 60-membered ring, NaNO2, MPAA, TCEP (NCL), 6 M Gn.HCl/0.2 M phosphate buffer, 0.2 mM): 71.7%

Substance: Ac-CHHALTHAK-CONH2
- ring closure, conversion ([1]; 33-membered ring, OPA): 98%

Substance: Ac-KAAAAACH-CONH2
- ring closure, conversion [1, 7]: 98%

Substance: cyclo-(Ac-CDWLPK-CONH2)-DMAC
- ring closure, yield after HPLC [8]: 31.9%

Substance: bicyclo-(CSSLDEPGRGGFSSESKV)-DMAC
- ring closure, yield after HPLC (crosslinker bond, 15-membered ring, OPA, then DMAC, PBS pH 7.4/DMSO, 2 steps): 43%

Substance: cyclo-(Ac-AKVTMTCSAS-CONH2)-DMAC
- ring closure, yield after HPLC [8]: 32%

Substance: cyclo-(Ac-ENPECILDKHVQRVM-CONH2)-DMAC
- ring closure, yield after HPLC [4]: 35%

Substance: Ac-KAAAACF-CONH2
- ring closure, conversion ([1]; 24-membered ring, OPA): 93%

Substance: bicyclo-(CSSLDEPGRGGFSSESKV)
- ring closure, conversion ([1]; 15-membered ring, OPA): 98%
